Holding throughout (type): cell-based
Test [1] deals with renal carcinoma cells (786-O). The test can be described thus: In vitro potency (CellTiter-Glo, 96 h), 786-O. Particulars: Homo sapiens, 786-0, 96 h, CPT free drugs, renal carcinoma cells 786-O, 96 h, CellTiter-Glo. The protocol: (§1) In vitro potency was assessed on multiple cancer cell lines. All cell lines were authenticated by STR profiling at IDEXX Bioresearch and cultured for no more than 2 months after resuscitation. Cells cultured in log-phase growth were seeded for 24 hours in 96-well plates containing […] RPMI 1640 supplemented with 20% FBS. Serial dilutions of antibody-drug conjugates in cell culture media were prepared at 4× working concentrations, and 50 μL of each dilution was added to the 96-well plates. Following addition of test articles, cells were incubated with test articles for 4 days at 37 0° C. After 96 hours, growth inhibition was assessed by CellTiterGlo® (Promega, Madison, WI) and luminescence was measured on a plate reader.
(§2) In Table 7, IC50 values for ADCs are given in ng/mL. Cell viability was determined by CellTiter-Glo staining after 96 h exposure to ADC. ND=Not Determined. Ag2 is an antibody targeting a ubiquitous and readily internalizable antigen. The cancer cell lines tested are renal carcinoma cells (786-0), melanoma cells (A2058), pancreatic cancer cells (BxPC3), non-small-cell lung cancer cells (Calu1), anaplastic large cell lymphoma cells (DEL, DELBVR, Karpas299), Hodgkin's lymphoma cells (L540cy), (Ls174T), breast cancer cells (MDA-MB-231), acute myeloid leukemia cells (MOLM-13), and B-lymphocyte cancer cells (SU-DHL4).
(§3) In vitro potency was assessed on multiple cancer cell lines. All cell lines were authenticated by STR profiling at IDEXX Bioresearch and cultured for no more than 2 months after resuscitation. Cells cultured in log-phase growth were seeded for 24 hours in 96-well plates containing […] RPMI 1640 supplemented with 20% FBS. Following addition of test articles, cells were incubated with test articles for 4 days at 37 0° C. After 96 hours, growth inhibition was assessed by CellTiterGlo® (Promega, Madison, WI) and luminescence was measured on a plate reader.
(§4) Cell viability was determined by CellTiter-Glo staining after 96 h exposure to the compound. ND=Not Determined. The cancer cell lines tested are renal carcinoma cells (786-0), melanoma cells (A2058), pancreatic cancer cells (BxPC3), non-small-cell lung cancer cells (Calu1), anaplastic large cell lymphoma cells (DEL, DELBVR, Karpas299), Hodgkin's lymphoma cells (L540cy), (Ls 174T), breast cancer cells (MDA-MB-231), acute myeloid leukemia cells (MOLM-13), B-lymphocyte cancer cells (SU-DHL4), multiple myeloma cells (MM.1R), (U266), and melanoma cells (SK-MEL-5).
as §1, with “37°” for “37 0°”
(§5) In the following Tables IC50 values for ADCs and CPT free drugs are given in ng/mL and nmol/L concentrations. Cell viability was determined by CellTiter-Glo staining after 96 h exposure to ADC or CPT free drug.
(§6) Cell viability was determined by CellTiter-Glo staining after 96 h exposure to ADC. ND=Not Determined.
Background: ATP-based viability assays read luminescence as a measure of living cells.

Test [2] concerns B-lymphocyte cancer cells (SU-DHL4). In words: In vitro potency (CellTiter-Glo, 96 h), SU-DHL-4. Particulars: Homo sapiens, SU-DHL-4, 96 h, CPT free drugs, B-lymphocyte cancer cells SU-DHL4, 96 h, CellTiter-Glo. As to the method: as §1, §2, §3, §4
as §1, with “37°” for “37 0°”
as §5, §6

The subject of test [3] is anaplastic large cell lymphoma cells (DELBVR). The test can be described thus: In vitro potency (CellTiter-Glo, 96 h), DELBVR. As to the method: as §1, §2, §3, §4
as §1, with “37°” for “37 0°”
as §5, §6

For test [4], the system named is Hodgkin's lymphoma cells (L540cy). In words: In vitro potency (CellTiter-Glo, 96 h), L540cy. The protocol: as §1, §2, §3, §4
as §1, with “37°” for “37 0°”
as §5, §6

Test [5] relates to pancreatic cancer cells (BxPC3). In words: In vitro potency (CellTiter-Glo, 96 h), BxPC3. Conditions: Homo sapiens, BXPC-3, 96 h, CPT free drugs, pancreatic cancer cells BxPC3, 96 h, CellTiter-Glo. As to the method:
as §1, §2, §3, §4
as §1, with “37°” for “37 0°”
as §5, §6

Test [6] concerns anaplastic large cell lymphoma cells (DEL). The test can be described thus: In vitro potency (CellTiter-Glo, 96 h), DEL. The protocol:
as §1, §2, §3, §4
as §1, with “37°” for “37 0°”
as §5, §6

A further test deals with Ls174T cells. The test can be described thus: In vitro potency (CellTiter-Glo, 96 h), Ls174T. Particulars: Homo sapiens, CPT free drugs, Ls174T cells, 96 h, CellTiter-Glo. The protocol: as §1, §2, §3, §4
as §1, with “37°” for “37 0°”
as §5, §6

Test [7] relates to anaplastic large cell lymphoma cells (Karpas299). In words: In vitro potency (CellTiter-Glo, 96 h), Karpas299. Conditions: Homo sapiens, KARPAS-299, 96 h, CPT free drugs, anaplastic large cell lymphoma cells Karpas299, 96 h, CellTiter-Glo. The protocol: as §1, §2, §3, §4
as §1, with “37°” for “37 0°”
as §5, §6

In test [8] the test system is acute myeloid leukemia cells (MOLM-13). The test can be described thus: In vitro potency (CellTiter-Glo, 96 h), MOLM-13. Conditions: Homo sapiens, MOLM-13, 96 h, CPT free drugs, acute myeloid leukemia cells MOLM-13, 96 h, CellTiter-Glo. The protocol:
as §1, §2, §3, §4
as §1, with “37°” for “37 0°”
as §5, §6

The test system of test [9] is breast cancer cells (MDA-MB-231). The test can be described thus: In vitro potency (CellTiter-Glo, 96 h), MDA-MB-231. Conditions: Homo sapiens, MDA-MB-231, 96 h, CPT free drugs, breast cancer cells MDA-MB-231, 96 h, CellTiter-Glo. The protocol:
as §1, §2, §3, §4
as §1, with “37°” for “37 0°”
as §5, §6

Setting [10] is: read-out: MOLM-13 IC50, Table 28.
[11] abbreviates: read-out: SU-DHL-4 IC50, Table 28.
The mark [12] stands for this setting: read-out: DELBVR IC50, Table 28, CPT free drugs, anaplastic large cell lymphoma cells DELBVR, CellTiter-Glo.
Setting [13] is: read-out: L540cy IC50, Table 28, CPT free drugs, Hodgkin's lymphoma cells L540cy, CellTiter-Glo.
Setting [14] is: read-out: DEL IC50, Table 28, CPT free drugs, anaplastic large cell lymphoma cells DEL, CellTiter-Glo.
Setting [15] is: LS174T, read-out: Ls174T IC50, Table 28.
Setting [16] is: read-out: Karpas299 IC50, Table 28.
[17] abbreviates: read-out: MDAMB231 IC50, Table 28.
Setting [18] is: read-out: SU-DHL-4 IC50, Table 29.
Setting [19] is: read-out: DELBVR IC50, Table 29, CPT free drugs, anaplastic large cell lymphoma cells DELBVR, CellTiter-Glo.
Setting [20] is: read-out: L540cy IC50, Table 29, CPT free drugs, Hodgkin's lymphoma cells L540cy, CellTiter-Glo.
The mark [21] stands for this setting: read-out: DEL IC50, Table 29, CPT free drugs, anaplastic large cell lymphoma cells DEL, CellTiter-Glo.
Where [22] appears, read: LS174T, read-out: Ls174T IC50, Table 29.
Where [23] appears, read: read-out: Karpas299 IC50, Table 29.
Where [24] appears, read: read-out: MOLM-13 IC50, Table 29.
Where [25] appears, read: read-out: MDAMB231 IC50, Table 29.

Usually IC50 stands for the midpoint of a concentration-inhibition curve.

Like-named read-outs stand apart in the source and are kept apart here.

Regarding `CC[C@@]1(O)C(=O)OCc2c1cc1n(c2=O)Cc2c-1nc1cc3c(cc1c2CN)COC3` [Compound 2ak], the IC50 in test [1] (Table 28, read-out: 786-O IC50) worked out at 57 nM; in test [2] (Table 28, read-out: SU-DHL-4 IC50) it was 11 nM; in [3] (Table 28, CPT free drugs, anaplastic large cell lymphoma cells DELBVR, CellTiter-Glo, read-out: DELBVR IC50), 6 nM; in [4] (Table 28, CPT free drugs, Hodgkin's lymphoma cells L540cy, CellTiter-Glo, read-out: L540cy IC50), 22 nM; in test [5] (Table 28, read-out: BxPC3 IC50) it was 88 nM; in test [6] (Table 28, CPT free drugs, anaplastic large cell lymphoma cells DEL, CellTiter-Glo, read-out: DEL IC50), 6 nM. Also, the IC50 worked out at 50 nM with Ls174T cells (Table 28, read-out: Ls174T IC50); 40 nM in test [7] (Table 28, read-out: Karpas299 IC50); 129 nM in test [8] (setting [10]); 147 nM in test [9] (Table 28, read-out: MDAMB231 IC50).
In the case of `C=C(C)c1c(C)c(F)cc2nc3c(c(CN)c12)Cn1c-3cc2c(c1=O)COC(=O)[C@]2(O)CC` [Compound 2al], the half-maximal inhibitory concentration (IC50) came to 4 nM in test [1] (read-out: 786-O IC50, Table 28); 1 nM in [2] (setting [11]); 1 nM in test [3] (setting [12]); 2 nM in test [4] (setting [13]); 7 nM in test [5] (read-out: BxPC3 IC50, Table 28); 1 nM in test [6] (setting [14]). In addition, the IC50 in the test with Ls174T cells (setting [15]) was found to be 11 nM; in test [7] (setting [16]) it was 4 nM; in [8] (setting [10]), 2 nM; in [9] (setting [17]) it was 9 nM.
Regarding `C=Cc1c(C)c(F)cc2nc3c(c(CN)c12)Cn1c-3cc2c(c1=O)COC(=O)[C@]2(O)CC` [Compound 2am, (S)-11-(aminomethyl)-4-ethyl-8-fluoro-4-hydroxy-9-methyl-10-vinyl-1,12-dihydro-14H-pyrano[3′,4′:6,7]indolizino[1,2-b]quinoline-3,14(4H)-dione], the IC50 in test [1] (read-out: 786-O IC50, Table 28) was determined as 2 nM; in test [2] (setting [11]), 1 nM; in test [3] (setting [12]) it was 0.3 nM; in test [4] (setting [13]), 1 nM; in [5] (read-out: BxPC3 IC50, Table 28), 4 nM; in [6] (setting [14]), 0.3 nM. Also, the IC50 turned out to be 5 nM in the test on Ls174T cells (setting [15]), 2 nM in test [7] (setting [16]), 2 nM in [8] (setting [10]) and 5 nM in test [9] (setting [17]).
As for `CC[C@@]1(O)C(=O)OCc2c1cc1n(c2=O)Cc2c-1nc1cc3c(cc1c2CNC[C@H](O)CN1CCCCC1)OCO3` [Compound 7aa], the IC50 was 131 nM in test [1] (read-out: 786-O IC50, Table 29); 19 nM in test [2] (setting [18]); 19 nM in [3] (setting [19]); 51 nM in test [4] (setting [20]); 66 nM in test [5] (read-out: BxPC3 IC50, Table 29); 17 nM in [6] (setting [21]). In addition, the IC50 with Ls174T cells (setting [22]) came out at 188 nM; in test [7] (setting [23]), 63 nM; in [8] (setting [24]), 69 nM; in [9] (setting [25]) it was 228 nM.
For `CC[C@@]1(O)C(=O)OCc2c1cc1n(c2=O)Cc2c-1nc1cc3c(cc1c2CNCCCN1CCN(C)CC1)OCO3` [Compound 7h], the IC50 in test [1] (read-out: 786-O IC50, Table 29) came to 44 nM; in [2] (setting [18]), 21 nM; in [3] (setting [19]) it was 6 nM; in test [4] (setting [20]), 23 nM; in test [5] (read-out: BxPC3 IC50, Table 29), 43 nM; in test [6] (setting [21]) it was 5 nM. The concentration for half-maximal inhibition (IC50) was found to be 40 nM with Ls174T cells (setting [22]), 57 nM in test [7] (setting [23]), 93 nM in test [8] (setting [24]) and 67 nM in test [9] (setting [25]).
Consider `CC[C@@]1(O)C(=O)OCc2c1cc1n(c2=O)Cc2c-1nc1cc3c(cc1c2CNC[C@H](O)CO)OCO3` [Compound 7n], for which the IC50 in test [1] (read-out: 786-O IC50, Table 29) stood at 66 nM; in [2] (setting [18]), 21 nM; in test [3] (setting [19]) it was 6 nM; in test [4] (setting [20]), 23 nM; in test [5] (read-out: BxPC3 IC50, Table 29), 47 nM; in [6] (setting [21]), 5 nM. The IC50 in the test with Ls174T cells (setting [22]) amounted to 39 nM; in [7] (setting [23]), 57 nM; in test [8] (setting [24]), 137 nM; in [9] (setting [25]) it was 96 nM.
On to `CC[C@@]1(O)C(=O)OCc2c1cc1n(c2=O)Cc2c-1nc1cc3c(cc1c2CNC(C)=O)OCO3` [Compound 12b], for which the IC50 stood at 12 nM in [1] (read-out: 786-O IC50, Table 28); 1 nM in [2] (setting [11]); 1 nM in test [3] (setting [12]); 4 nM in [4] (setting [13]); 11 nM in test [5] (read-out: BxPC3 IC50, Table 28); 22 nM with Ls174T cells (setting [15]). Moreover, the results for the IC50 in test [7] (setting [16]), in [8] (setting [10]) and in test [9] (setting [17]) were 8 nM, 3 nM and 28 nM, respectively.

The values above are taken from patent publication US20240207427A1, “SELECTIVE DRUG RELEASE FROM INTERNALIZED CONJUGATES OF BIOLOGICALLY ACTIVE COMPOUNDS” (priority 2021, published 2024).
